Here are results for eight compounds from PubChem BioAssay (NCI).

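Five compound concentrations were applied to cells in 96-well plates for 48 hours; endpoints were derived by simple linear interpolation of the resulting dose-response curve. The concentration for 50% growth inhibition is given as GI50. At the TGI there is no net growth.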

Common to all, as to test: growth of human tumour cells (NCI), 48 h
Assay [1] relates to A549 NSCLC.
The subject of assay [2] is DU-145 prostate.
Assay [3] concerns EKVX NSCLC.
Assay [4] concerns HS 578T breast.
The test system of assay [5] is LOX IMVI melanoma.
Assay [6] relates to NCI/ADR-RES ovarian.
Assay [7] has as its system RPMI-8226 leukemia.
Assay [8] deals with RXF 393 renal.
Assay [9] concerns T-47D breast.
Assay [10] relates to UACC-257 melanoma.

Consider `O=C(N/N=C/c1ccc([N+](=O)[O-])o1)c1ccc(O)cc1`, for which the GI50 in assay [1] was 4.71 µM; in assay [2], 6.38 µM; in assay [3] it was 8.46 µM; in assay [4], 21.7 µM; in assay [5], 2.15 µM; in assay [6], 5.54 µM. The GI50 is 3.35 µM in assay [7], 12.9 µM in [8], 6.96 µM in assay [9] and 4.97 µM in [10]. Further, the TGI was > 100 µM in [1]; > 100 µM in assay [2]; 42.9 µM in assay [3]; > 100 µM in assay [4]; 16.9 µM in assay [5]; > 100 µM in assay [6]. Also, the TGI worked out at 48.3 µM in assay [7], 73.8 µM in assay [8], 32.7 µM in [9] and 18.8 µM in [10].
Regarding `COC(=O)c1cc(/C=C/c2ccc(S(N)(=O)=O)cc2)ccc1O`, the GI50 in assay [1] is 29.6 µM; in [2] it was 15.9 µM; in assay [3], 29.3 µM; in assay [4], 29.7 µM; in assay [5], 30 µM; in [6], 59.2 µM. Also, the GI50 is 27.4 µM in assay [7], 43.4 µM in [8] and 59.6 µM in [10]. The TGI in [1] was > 100 µM; in assay [2], > 100 µM; in assay [3] it was > 100 µM; in assay [4], 72.1 µM; in assay [5], > 100 µM; in assay [6], > 100 µM. Further, the TGI in assay [7], in assay [8] and in assay [10] was > 100 µM each time.
As for `CC1=C(C(=O)Nc2ccccc2)C(c2ccc(C3C(C(=O)Nc4ccccc4)=C(C)NC(C)=C3C(=O)Nc3ccccc3)cc2)C(C(=O)Nc2ccccc2)=C(C)N1`, the TGI in assay [1] came out at 21.8 µM; in assay [3] it was 10.6 µM; in assay [4], 16.2 µM; in assay [5], 3.24 µM; in [7] it was 13.8 µM; in [8], 3.87 µM. For the same compound, the values for the TGI in [9] and in [10] were 16.2 µM and 5.06 µM, respectively.
Regarding `CCCCCc1ccc(S(=O)(=O)Nc2cc(-c3csc(NC(C)=O)n3)ccc2N2CCN(C)CC2)cc1`, the GI50 is 5.11 µM in assay [1]; 5.16 µM in assay [2]; 5.65 µM in [3]; 5.12 µM in [4]; 0.648 µM in [5]; 4.54 µM in assay [6]. For the same compound, the GI50 in assay [8] was 3.66 µM; in assay [9], 4.8 µM; in [10], 4.48 µM. Besides, the TGI worked out at 11.8 µM in assay [1]; 9.8 µM in assay [2]; 10.7 µM in [3]; 13.4 µM in [4]; 1.35 µM in assay [5]; 9.18 µM in assay [6]. Moreover, the values for the TGI in assay [8], in [9] and in assay [10] were 8 µM, 11.7 µM and 11.4 µM, respectively.
With `Cc1cc(C)n(-c2nnc3n2N=C(c2ccc(-c4ccccc4)cc2)CS3)n1`, the GI50 in assay [1] was 3.83 µM; in assay [2] it was 3.82 µM; in assay [4], 2.76 µM; in assay [5] it was 3.36 µM; in assay [6] it was 3.09 µM; in [7], 3.18 µM. Moreover, the GI50 in assay [8] is 2.08 µM; in assay [9] it was 4.05 µM; in [10] it was 4.99 µM. Moreover, the TGI in assay [1], in assay [2], in assay [4], in assay [5], in [6] and in assay [7] was > 100 µM in each case. Besides, the values for the TGI in [8], in assay [9] and in [10] were 6.51 µM, > 100 µM and > 100 µM, respectively.
Consider `S=C1SC2=Nc3ccccc3CN2C2=NCCN12`, for which the GI50 in [1] is > 100 µM; in assay [2], > 100 µM; in assay [3] it was > 100 µM; in assay [5], 25.9 µM; in [6] it was > 100 µM; in assay [7], > 100 µM. For the same compound, the GI50 was 23.3 µM in [8], 78.5 µM in [9] and > 100 µM in assay [10]. Further, the TGI in assay [1] is > 100 µM; in [2], > 100 µM; in assay [3], > 100 µM; in assay [5], 83.2 µM; in [6], > 100 µM; in [7] it was > 100 µM. For the same compound, the TGI in assay [8] is 80.4 µM; in assay [9], > 100 µM; in assay [10], > 100 µM.
Take `COc1ccc2c(c1)C(C)Cc1c(ncnc1-n1cnc3cc(C)ccc31)N2C` (stereo unspecified): the GI50 in assay [1] is 0.254 µM; in assay [2] it was 0.325 µM; in assay [3], 0.25 µM; in assay [4], 0.0686 µM; in [5] it was 0.0642 µM; in assay [6] it was 0.0575 µM. Besides, the GI50 in assay [7] was 0.0407 µM; in [8], 0.0305 µM; in assay [10], 0.158 µM. The TGI stood at 12.6 µM in assay [1]; 12.1 µM in [2]; 23.2 µM in assay [3]; 31.7 µM in [4]; 14.5 µM in assay [5]; 59.5 µM in assay [6]. Further, the figures for the TGI in assay [7], in assay [8] and in [10] were 3.88 µM, 25.3 µM and 20.8 µM, respectively.
For `Cc1ccc(S(=O)(=O)NC(=O)NC2=NC(C)(C)N(c3ccc(Cl)c(Cl)c3)C(N)=N2)cc1`, the TGI in [1], in [2], in assay [3], in assay [4], in assay [6] and in [8] was > 100 µM throughout. The TGI in assay [9] and in [10] was > 100 µM each time.
